Bridge positions count the residues as written; N and C are the ends. Square brackets hold non-standard residues; d marks the D form. Peptide text beside a SMILES is read from it. Phe(4-COOH) = N[C@@H](Cc1ccc(C(=O)O)cc1)C(=O)O; Phe(3,4-F2) = N[C@@H](Cc1ccc(F)c(F)c1)C(=O)O; 2Nal = N[C@@H](Cc1ccc2ccccc2c1)C(=O)O; R8 = C=CCCCCCC[C@@](C)(N)C(=O)O; Cba = N[C@@H](CC1CCC1)C(=O)O; S5 = C=CCCC[C@](C)(N)C(=O)O; Nle = CCCC[C@H](N)C(=O)O

One assay relates to RKO. The assay can be described thus: Cell viability assay (MTT), RKO. The conditions noted are these: read-out: RKO EC50 (72 h).
The test system of the next assay is Caspase 3. Kind of assay: Caspase 3 detection assay in SJSA1 cells. It counts as cell-based. The conditions noted are these: SJSA1, 48 h, Caspase 3 activation over DMSO-treated cells.
Another assay relates to SJSA-1 cells. Kind of assay: Cell lysis by peptidomimetic macrocycles (LDH release). In kind it is cell-based. To be noted: SJSA-1, 1 h. In outline: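 SJSA-1 cells plated the day before, switched to RPMI with 1% FBS, then exposed 1 h at 37 °C to macrocycle at final 50 μM to 6.25 μM in 0.5% DMSO. LDH released into the supernatant was measured by kit. Controls: 0.5% DMSO (non-lytic), 10 μM melittin and 1% Triton X-100 (lytic).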
(In general: LDH in the medium is a marker of cell lysis.)

Turning to `CCCC[C@H](NC(=O)[C@H](C)NC(=O)[C@H](C)NC(=O)[C@]1(C)CCCC=CCCCCCC[C@@](C)(NC(=O)[C@H](Cc2ccccc2)NC(=O)[C@@H](NC(=O)[C@H](CC(C)C)NC(C)=O)[C@@H](C)O)C(=O)N[C@@H](C)C(=O)N[C@@H](Cc2ccc(O)cc2)C(=O)N(C)[C@@H](Cc2c[nH]c3ccccc23)C(=O)N[C@@H](C)C(=O)N[C@@H](CCC(N)=O)C(=O)N[C@@H](CC(C)C)C(=O)N1)C(=O)N[C@@H](C)C(N)=O` (single isomer, unassigned) [compound 386], the EC50 (as a rule, the concentration that produces a half-maximal response) in the assay with RKO is < 5 µM.
On to `CCCC[C@H](NC(=O)[C@H](C)NC(=O)[C@H](C)NC(=O)[C@]1(C)CCCC=CCCCCCC[C@@](C)(NC(=O)[C@H](Cc2ccccc2)NC(=O)[C@@H](NC(=O)[C@H](CC(C)C)NC(C)=O)[C@@H](C)O)C(=O)N[C@@H](C)C(=O)N[C@@H](Cc2ccc(O)cc2)C(=O)N[C@@H](Cc2c[nH]c3ccccc23)C(=O)NC(C)(C)C(=O)N[C@@H](CCC(N)=O)C(=O)N[C@@H](CC(C)C)C(=O)N1)C(=O)N[C@@H](C)C(N)=O` (single isomer, unassigned) [compound 390], for which the EC50 in the assay on RKO is < 5 µM.
For the compound `CC(C)C[C@H](NC(=O)CN(C)C)C(=O)N[C@H](C(=O)N[C@@H](Cc1ccccc1)C(=O)N[C@]1(C)CCCCCCC=CCCC[C@@](C)(C(=O)N[C@@H](C)C(=O)N[C@@H](C)C(=O)N[C@@H](C)C(=O)N[C@@H](C)C(=O)N[C@@H](C)C(=O)N[C@H](C)C(N)=O)NC(=O)[C@H](CC(C)C)NC(=O)[C@H](CCC(N)=O)NC(=O)[C@H](C)NC(=O)[C@H](Cc2c[nH]c3ccccc23)NC(=O)[C@H](Cc2ccc(O)cc2)NC(=O)[C@H](C)NC1=O)[C@@H](C)O` (single isomer, unassigned) [compound 436], the EC50 with RKO is < 5 µM.
Turning to `CC[C@H](C)[C@H](NC(=O)[C@H](C)NC(=O)[C@H](C)NC(=O)[C@]1(C)CCCC=CCCCCCC[C@@](C)(NC(=O)[C@H](Cc2ccccc2)NC(=O)[C@@H](NC(=O)[C@H](CC(C)C)NC(=O)CN(C)C)[C@@H](C)O)C(=O)N[C@@H](CCC(=O)O)C(=O)N[C@@H](Cc2ccc(C(=O)O)cc2)C(=O)N[C@@H](Cc2c[nH]c3ccccc23)C(=O)N[C@@H](C)C(=O)N[C@@H](CCC(N)=O)C(=O)N[C@@H](CC2CCC2)C(=O)N1)C(=O)N[C@H](C)C(N)=O` (single isomer, unassigned) [compound 440], the EC50 with RKO lay within 15 to 30 µM.
Consider `CCCC[C@H](NC(=O)[C@H](C)NC(=O)[C@H](C)NC(=O)[C@]1(C)CCCC=CCCCCCC[C@@](C)(NC(=O)[C@H](Cc2ccccc2)NC(=O)[C@@H](NC(=O)[C@H](CC(C)C)NC(=O)CN(C)C)[C@@H](C)O)C(=O)N[C@@H](C)C(=O)N[C@@H](Cc2ccc(O)cc2)C(=O)N[C@@H](Cc2c[nH]c3ccccc23)C(=O)N[C@@H](C)C(=O)N[C@@H](CCC(N)=O)C(=O)N[C@@H](CC(C)C)C(=O)N1)C(=O)N[C@@H](C)C(N)=O` (single isomer, unassigned) [compound 442], for which, in the assay with RKO, the EC50 was < 5 µM.
Same read-out and setting: in the case of `CSCC[C@H](NC(=O)[C@H](C)NC(=O)[C@H](CO)NC(=O)[C@]1(C)CCCC=CCCCCCC[C@@](C)(NC(=O)[C@H](Cc2ccccc2)NC(=O)[C@@H](NC(=O)[C@H](CC(C)C)NC(C)=O)[C@@H](C)O)C(=O)N[C@@H](C)C(=O)N[C@@H](Cc2ccc(O)cc2)C(=O)N[C@@H](Cc2c[nH]c3ccccc23)C(=O)N[C@@H](C)C(=O)N[C@@H](CCC(N)=O)C(=O)N[C@@H](CC(C)C)C(=O)N1)C(N)=O` [compound 5] (Ac-LTF[R8]AYWAQL[S5]SAM-NH2; staple 4-11) it was < 5 µM.
As to `CCCC[C@H](NC(=O)[C@H](C)NC(=O)[C@H](C)NC(=O)[C@]1(C)CCCC=CCCCCCC[C@@](C)(NC(=O)[C@H](Cc2ccccc2)NC(=O)[C@@H](NC(=O)[C@H](CCC(=O)O)NC(C)=O)[C@@H](C)O)C(=O)N[C@@H](C)C(=O)N[C@@H](Cc2ccc(O)cc2)C(=O)N[C@@H](Cc2c[nH]c3ccccc23)C(=O)N[C@@H](C)C(=O)N[C@@H](CCC(N)=O)C(=O)N[C@@H](CC2CCC2)C(=O)N1)C(=O)N[C@@H](C)C(N)=O` [compound 237] (Ac-ETF[R8]AYWAQ[Cba][S5]AA[Nle]A-NH2; staple 4-11), in the assay on Caspase 3, the “caspase 0.3 μM” value was found to be 1, the “caspase 3 μM” value was found to be 5, the “caspase 10 μM” value is 9 and the “caspase 30 μM” value turned out to be 15. In the assay with SJSA-1 cells, the “6.25 μM % Lysed cells (1 h LDH)” value stood at 0%, the “25 μM % Lysed cells (1 h LDH)” value is 7% and the “50 μM % Lysed cells (1 h LDH)” value is 55%.
Turning to `CCCC[C@H](NC(=O)[C@H](C)NC(=O)[C@H](CO)NC(=O)[C@]1(C)CCCC=CCCCCCC[C@@](C)(NC(=O)[C@H](Cc2ccc(F)c(F)c2)NC(=O)[C@@H](NC(=O)[C@H](CC(C)C)NC(C)=O)[C@@H](C)O)C(=O)N[C@@H](CCC(=O)O)C(=O)N[C@@H](Cc2ccc(O)cc2)C(=O)N[C@@H](Cc2c[nH]c3ccccc23)C(=O)N[C@@H](C)C(=O)N[C@@H](CCC(N)=O)C(=O)N[C@@H](CC2CCC2)C(=O)N1)C(=O)N[C@@H](C)C(N)=O` [compound 243] (Ac-LT[Phe(3,4-F2)][R8]EYWAQ[Cba][S5]SA[Nle]A-NH2; staple 4-11), in the assay with Caspase 3, the “caspase 0.3 μM” value came out at 1, the “caspase 3 μM” value was found to be 2, the “caspase 10 μM” value turned out to be 5 and the “caspase 30 μM” value turned out to be 23. In addition, in the assay on SJSA-1 cells, the “6.25 μM % Lysed cells (1 h LDH)” value is 4%, the “25 μM % Lysed cells (1 h LDH)” value was found to be 39% and the “50 μM % Lysed cells (1 h LDH)” value was found to be 64%.
With `CCCC[C@H](NC(=O)[C@H](C)NC(=O)[C@H](CO)NC(=O)[C@]1(C)CCCC=CCCCCCC[C@@](C)(NC(=O)[C@H](Cc2ccccc2)NC(=O)[C@@H](NC(=O)[C@H](CC(C)C)NC(C)=O)[C@@H](C)O)C(=O)N[C@@H](CCC(=O)O)C(=O)N[C@@H](Cc2ccc(C(=O)O)cc2)C(=O)N[C@@H](Cc2c[nH]c3ccccc23)C(=O)N[C@@H](C)C(=O)N[C@@H](CCC(N)=O)C(=O)N[C@@H](CC2CCC2)C(=O)N1)C(=O)N[C@@H](C)C(N)=O` [compound 244] (Ac-LTF[R8]E[Phe(4-COOH)]WAQ[Cba][S5]SA[Nle]A-NH2; staple 4-11), in the assay on Caspase 3, the “caspase 0.3 μM” value is reported as 1, the “caspase 3 μM” value was found to be 2, the “caspase 10 μM” value turned out to be 7 and the “caspase 30 μM” value is 17. Besides, in the assay with SJSA-1 cells, the “6.25 μM % Lysed cells (1 h LDH)” value was 0%, the “25 μM % Lysed cells (1 h LDH)” value was determined as 0% and the “50 μM % Lysed cells (1 h LDH)” value amounted to 4%.
Take `CCCC[C@H](NC(=O)[C@H](C)NC(=O)[C@H](CO)NC(=O)[C@]1(C)CCCC=CCCCCCC[C@@](C)(NC(=O)[C@H](Cc2ccccc2)NC(=O)[C@@H](NC(=O)[C@H](CC(C)C)NC(C)=O)[C@@H](C)O)C(=O)N[C@@H](CCC(=O)O)C(=O)N[C@@H](Cc2ccc(O)cc2)C(=O)N[C@@H](Cc2c[nH]c3ccccc23)C(=O)N[C@@H](CO)C(=O)N[C@@H](CCC(N)=O)C(=O)N[C@@H](CC2CCC2)C(=O)N1)C(=O)N[C@@H](C)C(N)=O` [compound 245] (Ac-LTF[R8]EYWSQ[Cba][S5]SA[Nle]A-NH2; staple 4-11): in the assay on Caspase 3, the “caspase 0.3 μM” value came out at 1, the “caspase 3 μM” value is recorded as 3, the “caspase 10 μM” value came to 9 and the “caspase 30 μM” value came out at 16. In the assay on SJSA-1 cells, the “6.25 μM % Lysed cells (1 h LDH)” value is on record as 1%, the “25 μM % Lysed cells (1 h LDH)” value is listed as 11% and the “50 μM % Lysed cells (1 h LDH)” value was determined as 56%.
As to `CC[C@H](C)[C@H](NC(=O)[C@H](C)NC(=O)[C@H](C)NC(=O)[C@]1(C)CCCC=CCCCCCC[C@@](C)(NC(=O)[C@H](Cc2ccccc2)NC(=O)[C@@H](NC(=O)[C@H](CC(C)C)NC(C)=O)[C@@H](C)O)C(=O)N[C@@H](CCC(=O)O)C(=O)N[C@@H](Cc2ccc(O)cc2)C(=O)N[C@@H](Cc2c[nH]c3ccccc23)C(=O)N[C@@H](C)C(=O)N[C@@H](CCC(N)=O)C(=O)N[C@@H](CC2CCC2)C(=O)N1)C(=O)N[C@H](C)C(N)=O` [compound 247] (Ac-LTF[R8]EYWAQ[Cba][S5]AAI[dA]-NH2; staple 4-11), in the assay with Caspase 3, the “caspase 0.3 μM” value is 1, the “caspase 3 μM” value turned out to be 3, the “caspase 10 μM” value amounted to 11 and the “caspase 30 μM” value is 24. For the same compound, in the assay on SJSA-1 cells, the “6.25 μM % Lysed cells (1 h LDH)” value came to 0%, the “25 μM % Lysed cells (1 h LDH)” value stood at 0% and the “50 μM % Lysed cells (1 h LDH)” value was 4%.
On to `CC(=O)N[C@@H](CC(C)C)C(=O)N[C@H](C(=O)N[C@@H](Cc1ccccc1)C(=O)N[C@]1(C)CCCCCCC=CCCC[C@@](C)(C(=O)N[C@@H](CO)C(=O)N[C@@H](C)C(=O)N[C@@H](C)C(N)=O)NC(=O)[C@H](CC2CCC2)NC(=O)[C@H](CCC(N)=O)NC(=O)[C@H](C)NC(=O)[C@H](Cc2ccc3ccccc3c2)NC(=O)[C@H](Cc2ccc(O)cc2)NC(=O)[C@H](CCC(=O)O)NC1=O)[C@@H](C)O` [compound 254] (Ac-LTF[R8]EY[2Nal]AQ[Cba][S5]SAA-NH2; staple 4-11), for which, in the assay on Caspase 3, the “caspase 0.3 μM” value came out at 1, the “caspase 3 μM” value came out at 7, the “caspase 10 μM” value is recorded as 14 and the “caspase 30 μM” value is on record as 22. In addition, in the assay on Caspase 3 (1 μM), the “caspase 1 μM” value was 3. For the same compound, in the assay on SJSA-1 cells, the “6.25 μM % Lysed cells (1 h LDH)” value is on record as 11%, the “25 μM % Lysed cells (1 h LDH)” value turned out to be 60% and the “50 μM % Lysed cells (1 h LDH)” value was found to be 75%.
`CCCC[C@H](NC(=O)[C@H](C)NC(=O)[C@H](C)NC(=O)[C@]1(C)CCC/C=C/CCCCCC[C@@](C)(NC(=O)[C@H](Cc2ccccc2)NC(=O)[C@@H](NC(=O)[C@H](CC(C)C)NC(C)=O)[C@@H](C)O)C(=O)N[C@@H](C)C(=O)N[C@@H](Cc2ccc(O)cc2)C(=O)N[C@@](C)(Cc2c[nH]c3ccccc23)C(=O)N[C@@H](C)C(=O)N[C@@H](CCC(N)=O)C(=O)N[C@@H](CC(C)C)C(=O)N1)C(=O)N[C@@H](C)C(N)=O` [compound 388]: the 50% effective concentration (EC50) with RKO lay within 15 to 30 µM.

Source of the values: US20200369728A1, “PEPTIDOMIMETIC MACROCYCLES AND USES THEREOF” (Aileron Therapeutics, Inc., priority 2015, published 2020).
